Details: used in the absence of phosphate, in some trials
From the text: The anion may be any suitable stabilizing anion, by which is contemplated to be an anion the inclusion of which results in a composition that is stable for storage and transport as against precipitation of calcium fluoride, the composition not being stable (or as stable) for storage and transport as against precipitation of calcium fluoride in the absence of the anion. In some embodiments, the anion contains the O—PO—O moiety. […] Plural anions may be employed in a single composition.

O=P(O)(O)OP(=O)(O)O [pyrophosphate]
effectiveness as stabilizing anion: not to be effective

Source: patent US8956594B2, “Fluoride-calcium compositions, dental products, and methods for providing dental fluoride” (ADA Foundation, priority 2005, dated 2015)
